experiment: Human HepG2 cell viability assay in 384 well format; assay type: toxicity, cell-based; parameters: dose 125 nL, time 70.5 hour; cytotoxicity at 70.5 h: concentration not given beside the values; conditions: HepG2 cells, read-out: Inhibition

SMILES | cytotoxicity at 70.5 h [%]
O=C(NCCn1ccnc1)c1cc(F)cc(Br)c1 | -8.01
Cc1nc(C2(NCc3ccc(C#N)cc3F)CCCCC2)no1 | -1.37
CNC(=O)c1ccc(=O)n(Cc2csc(N(C)C(C)=O)n2)c1 | -2.61
CC(C)(C)CNS(=O)(=O)C1CS(=O)(=O)c2ccccc21 (centres undefined) | 16.6
O=C(NCCn1ccnc1)c1csc(Br)c1 | 16.5
N#CCCCS(=O)(=O)N1CCC(CSc2ccccc2)C1 (centres undefined) | -9.53
O=C(NC1CCCN(c2ccc(OC(F)F)cc2)C1)c1ccon1 (centres undefined) | -1.24
CSc1ccc(CNc2ccccc2CN2CCC(O)CC2)cc1 | -3.71
O=C(Nc1ccccc1Cn1cncn1)C1CCN(C2CCCCC2)C1 (centres undefined) | -5.06
O=C(NC1CCCN(c2ccc(OC(F)F)cc2)C1)c1cc[nH]n1 (centres undefined) | -11.9
O=S(=O)(CCO)Cc1ccc(OC(F)F)cc1 | -5.07
Cn1cc(C#N)cc1C(=O)NC1(C#N)CCSCC1 | -4.89
CNC(=O)Cc1ccccc1NC(=O)C1CCN(C2CCCCC2)C1 (centres undefined) | -7.23
Cc1cc(C(=O)NC2(C#N)CCSCC2)n(C)n1 | -5.82
CC(C)c1nc2c(n1C)CCN(CC(=O)NCc1ccccn1)C2 | -0.491
COc1cc(OC)cc(C2(O)CCN(Cc3nc(C)c(C)o3)CC2)c1 | 0.268
Cc1ccc(CN(C(=O)NCC(c2cccs2)N(C)C)C2CC2)o1 (centres undefined) | -5.44
COc1ccccc1C(=O)N1CCN(CCc2scnc2C)CC1 | -7.23
Cc1cnc(CNc2ccccc2CN(C)C(=O)c2cccs2)o1 | 18.4
CC1CCN(C(=O)C2CCN(c3ccc(Cl)cc3C#N)CC2)CC1 | -6.44
Cc1ccc(OCc2nc(CNCCn3cccn3)cs2)cc1 | -2.86
CC(C)COCCC(=O)Nc1cccnc1-n1cncn1 | -6.91
COCCNC(=O)N1CCCC(COc2ccccc2)C1 (centres undefined) | 1.11
Cc1ccc2nc(CNc3ccccc3C(=O)NC3CC3)cn2c1 | -4.35

SMILES | cytotoxicity at 70.5 h [%]
COc1ccc(C(=O)NCCN(C)C)c(I)c1 | 2.46
COc1ccc(C(=O)NCCC(N)=O)c(I)c1 | 24.4
CC(CO)(NC(=O)NCCc1ccc(Br)s1)C1CC1 (centres undefined) | -11
Cc1cc(CNC(=O)NC(C)(CO)C2CC2)c(C)s1 (centres undefined) | -5.03
NC(=O)CN(C(=O)C1Cc2cc(Cl)ccc2O1)C1CCCC1 (centres undefined) | 24.1
Cc1csc(C2(NCc3csc(C4CC4)n3)CCCC2)n1 | -9.17
c1csc(C2(NCc3csc(C4CC4)n3)CCCC2)n1 | -7.26
Cc1noc(C)c1CCC(=O)N1CCn2cccc2C1C (centres undefined) | -0.947
COCCCS(=O)(=O)N(Cc1cccc(C)c1)Cc1ccccn1 | 8.58
CC(C)CCN1CCN(C(=O)c2c[nH]nn2)CC1 | 14
CCN(CC)S(=O)(=O)N(Cc1ccccn1)Cc1ccccc1C | 43.2
CCN(CC1CCOC1)C(=O)c1ccn(-c2ccc(OC)cc2)n1 (centres undefined) | -3.5
COc1ccccc1CN(CC1CCCO1)C(=O)c1scnc1C (centres undefined) | -12.6
Cc1cccnc1NC(=O)NC(CCO)C(C)(C)C (centres undefined) | -2.8
CCN(CC1CCOC1)C(=O)c1cn2ccc(C)cc2n1 (centres undefined) | -16.3
CC(C)(C)c1nc(CNC2CCN(S(C)(=O)=O)CC2)cs1 | -8.36
CCc1nc(CNC2CCN(S(C)(=O)=O)CC2)cs1 | -0.997
CC1CN(C)CCN1C(=O)Nc1nc(-c2ccco2)cs1 (centres undefined) | -13.7
CC1CN(C)CCN1C(=O)Nc1nc(-c2cccn2C)cs1 (centres undefined) | -13.9
Cn1cnnc1CCNC(=O)c1cnn(Cc2ccccc2)c1 | -14.9
CCC1CN(C)c2ccccc2CN1C(=O)Nc1ccc(C)cc1 (centres undefined) | -2.3
COc1ccc(CNc2cccnc2-n2cccn2)cc1OC | -14.2
COc1ccc(C)cc1-n1ccc(C(=O)NCC2CCCOC2)n1 (centres undefined) | -11.7
COc1cc(CN(C)CCc2ccncc2)c(SC)cc1OC | -7.73

SMILES | cytotoxicity at 70.5 h [%]
COc1cc(CN(C)Cc2ccncc2)c(SC)cc1OC | -10.7
CC(C)CCN1CCN(C(=O)c2cnccn2)CC1 | 18.6
CCN(CC1CCOC1)C(=O)c1ccn(-c2cc(C)ccc2OC)n1 (centres undefined) | -2.72
CN(C)c1ccc(CN(CC2CCCO2)C(=O)c2csnn2)cc1 (centres undefined) | -14.8
CCN(CC)S(=O)(=O)c1ccc(CNc2cc(C)nc(C)n2)cc1 | -12.1
Fc1ccc(OCCNC2CCN(Cc3ccccn3)CC2)c(F)c1 | 20.2
N#Cc1ccc(NCC(O)c2ccco2)c(C(F)(F)F)c1 (centres undefined) | -6.87
CN(CCN1CCOC1=O)CC(=O)Nc1ccc(Cl)c(C(F)(F)F)c1 | -22
COCC(C)NC(=O)CSc1ccc(F)c(Cl)c1 (centres undefined) | 12
Cc1ccc(C(CNCc2cccc3c2OCO3)N2CCOCC2)o1 (centres undefined) | -17
CC(=O)N1CCC(C(=O)NCc2ncc(-c3ccccc3)o2)CC1 | -14.2
O=C(NCc1ncc(-c2ccccc2)o1)NC1CCC(O)CC1 (centres undefined) | -7.39
Clc1snnc1CN1CCN(c2nccs2)CC1 | -13.7
CC(CNC(=O)c1cn(-c2ccccc2)nn1)Cn1cccn1 (centres undefined) | 13.9
Cc1ccc(-n2cc(C(=O)NCC(C)Cn3cccn3)nn2)cc1 (centres undefined) | -14.5
CN(CCC#N)C(=O)Cn1nnnc1C(C)(C)C | -16.8
CS(=O)(=O)CCC(=O)NC1(c2cccc(C(F)(F)F)c2)CCC1 | -24.7
Cc1ccnc(NC(=O)C2CCN(CCCc3cn[nH]c3)CC2)c1 | -14.2
CCC(C(=O)Nc1ccc(-c2nc(C)n[nH]2)cc1)N1CCCC1=O (centres undefined) | -9.81
Cc1cccc2c1NC1(CCOCC1)NC2=O | -26.4
CCN1CCc2c(cccc2NC(=O)N(C)C2CCSC2)C1 (centres undefined) | -10.8
CCN1CCN(c2ccccc2NC(=O)N(C)C2CCSC2)CC1 (centres undefined) | -13.8
CCC(C(=O)Nc1ccc2c(C)n[nH]c2c1)N1CCCC1=O (centres undefined) | 21.5
CC(=O)NCCNC(=O)c1cc(C)ccc1SC1CCCC1 | -11.6

SMILES | cytotoxicity at 70.5 h [%]
Cc1ccnc(NC(=O)C2CCN(CCCn3ccnc3C)CC2)c1 | -13
O=S(=O)(Cc1ccc(F)cc1F)NCCOc1cccnc1 | -18.9
Cc1ccc(SC2CCCC2)c(C(=O)NCCO)c1 | -23.4
CC(O)CNc1ccc(C#N)cc1C(F)(F)F (centres undefined) | -12.9
O=C(CCC1CCCO1)NCCc1ccccn1 (centres undefined) | -10
Cc1csc(N2CCN(Cc3nnsc3Cl)CC2C)n1 (centres undefined) | -16
CCn1c(CN(C)Cc2cnc(C)s2)nc2cc(F)ccc21 | 10.8
CC1CN(Cc2nnsc2Cl)CCN1c1nccs1 (centres undefined) | -19.1
CO[C@H]1CN(C(=O)OC(C)(C)C)CC1NCc1ccn(C)c1 (some centres undefined) | -6.04
c1csc(C(CNCc2cccc3c2OCO3)N2CCOCC2)c1 (centres undefined) | -13.2
NC(=O)c1cccc(CCNCc2cnc(C3CCC3)s2)c1 | 7.84
Cc1nn(C)c(C)c1NC(=O)CN1CCCC1c1noc(C2CC2)n1 (centres undefined) | 8.6
CS(=O)(=O)c1ccccc1C(=O)NCC1Cc2ccccc2O1 (centres undefined) | -4.69
Cc1nccn1-c1cc(CNC(=O)C(C)(C)C)ccn1 | -4.88
Cc1nccn1-c1cc(CNC(=O)c2ccccn2)ccn1 | -4.56
CCCOc1ccc(NC(=O)NCCC(=O)N(C)C)cc1Cl | -4.39
N#Cc1ccc(CNCC2CCN(CCO)CC2)cc1 | -5.67
O=C(CCc1nccs1)N1CCC(N2CCNC2=O)CC1 | -3.7
O=C(Cc1cccs1)NC1CCN(c2cccc(F)c2)CC1 | 1.18
Cc1cc(NC(=O)CN2CCCC2c2noc(C3CC3)n2)no1 (centres undefined) | 1.09
Cc1cc(N2CCC(N(C)C(=O)Nc3ccccc3)CC2)nc(C)n1 | 2.35
O=C(NCC(O)c1ccccc1Cl)c1cccc(-n2cnnn2)c1 (centres undefined) | -0.179
C1CC1c1nsc(N2CCN(C3CC3)CC2)n1 | 1.41
Cn1c(CN2CCN(CC3CC3)CC2)nnc1C1CCC1 | 20.3

SMILES | cytotoxicity at 70.5 h [%]
CCN1CCCC1CN(CCN(C)C)S(=O)(=O)c1cccc(C#N)c1 (centres undefined) | -1.36
Cc1cccc(CNCc2c(C(C)C)nn(C)c2N2CCOCC2)n1 | 0.6
Cc1nc(C)n(CC2CCCN2CC(=O)NCCc2ccccc2)n1 (centres undefined) | -4.21
Cc1cc(CNC(=O)N2CCN(c3ccccc3)CC2)no1 | -3.89
CCS(=O)(=O)CCn1ccc(NC(=O)CCc2cccc(C)c2)n1 | -2.75
CC(Oc1ccccc1C(F)(F)F)C(=O)NS(=O)(=O)C(C)C (centres undefined) | 1.98
Cc1nc(C)n(C2CCCN(C(=O)c3ccc(F)cc3F)C2)n1 (centres undefined) | -4.94
Cc1nc(C)c(CNC(=O)NC(c2nnc3n2CCC3)C(C)C)s1 (centres undefined) | -1.59
Cc1ncsc1C(=O)NCCOc1ncc(Cl)cc1Cl | 1.13
CC(C)C(NC(=O)NCC1(CO)CC1)c1nnc2n1CCC2 (centres undefined) | -4.32
Cc1cc(CNC(=O)N2CCN(c3nc(C)c(C)s3)CC2)no1 | 7.38
Cc1nccc(C(=O)N2CCCN(Cc3cnn(C(C)C)c3)CC2)n1 | -4.5
CCn1ccnc1CN1CCN(CCC(=O)NC(C)(C)C)CC1C (centres undefined) | -1.52
CCc1ccc(NC(=O)N2C[C@H]3C[C@H](C(=O)N4CCCC4)[C@@H](C2)O3)cc1 | 21
O=C(c1ccc[nH]1)N1CCc2ncc(Cn3cccn3)n2CC1 | 18.1
O=C(Nc1ccc(F)cc1)N1C[C@H]2C[C@H](C(=O)N3CCCC3)[C@@H](C1)O2 | -9.47
CN(C)C(=O)N1CCC(c2nc3ccc(-c4ccccc4)cn3n2)CC1 | -4.01
O=C(O)CC1CN(Cc2ccccc2)CCO1 (centres undefined) | -0.381
O=C(NCc1cncc2c1CCN(C1CCOCC1)C2)c1ccno1 | -7.6
O=C(NCc1cncc2c1CCN(C1CCOCC1)C2)c1ccco1 | -2.15
O=C(C1CCCO1)N1CCCC2(CCN(c3cccnc3)CC2)C1 (centres undefined) | -3.98
Cn1ccnc1CN1CCc2onc(COCC3CC3)c2C1 | -4.62
CN(C)C(=O)CN1CC[C@]2(CN(CC3CC3)C[C@H]2c2ccccc2)C1=O | -6.06

Reference: ChEMBL document CHEMBL3507680, “University of Dundee, Gates Library screen for HepG2 cell viability”
